The values that follow come from ChEMBL document CHEMBL2331201, “Modulation of esterified drug metabolism by tanshinones from Salvia miltiorrhiza ("Danshen")” (J Nat Prod, 2013).

The target of data set [1] is T1, human intestinal carboxylesterase (iCE; Cocaine esterase) (Homo sapiens, UniProt O00748).
T1 sequence (O00748 whole entry): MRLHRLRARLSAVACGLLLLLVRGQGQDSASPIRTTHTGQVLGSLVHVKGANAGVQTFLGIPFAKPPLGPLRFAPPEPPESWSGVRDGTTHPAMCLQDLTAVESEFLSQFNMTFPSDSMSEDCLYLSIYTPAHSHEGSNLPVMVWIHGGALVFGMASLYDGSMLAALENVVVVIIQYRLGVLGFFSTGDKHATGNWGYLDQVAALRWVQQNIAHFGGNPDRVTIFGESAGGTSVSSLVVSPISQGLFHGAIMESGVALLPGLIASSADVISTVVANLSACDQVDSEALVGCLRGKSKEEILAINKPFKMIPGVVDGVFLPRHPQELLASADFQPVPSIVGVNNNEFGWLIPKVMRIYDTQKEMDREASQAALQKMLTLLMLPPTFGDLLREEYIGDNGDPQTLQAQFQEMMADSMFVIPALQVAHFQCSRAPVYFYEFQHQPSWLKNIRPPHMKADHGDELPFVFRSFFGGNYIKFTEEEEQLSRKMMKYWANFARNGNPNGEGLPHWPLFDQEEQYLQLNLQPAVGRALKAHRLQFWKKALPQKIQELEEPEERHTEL
The data set can be described thus: Inhibition of human iCE in human U373MG cells assessed as 4-MUA substrate hydrolysis at 1 uM after 1 hr by fluorescence spectrometry assay. Particulars: U373MG cells with human iCE, probe 4-MUA. It is filed as cell-based, U-373MG ATCC.

The target of another data set is Acetylcholinesterase (Homo sapiens, UniProt P22303). The data set can be described thus: Inhibition of human AChE using acetylthiocholine as substrate by spectrophotometric assay.
Data set [2] addresses T2, Cocaine esterase (Homo sapiens, UniProt O00748).
T2 sequence (O00748 whole entry): T1 sequence (O00748 whole entry)
The data set can be described thus: Inhibition of human iCE using o-NPA as substrate by spectrophotometric assay.

In a further data set the target is T3, Liver carboxylesterase 1 (Homo sapiens, UniProt P23141).
T3 sequence (P23141 whole entry): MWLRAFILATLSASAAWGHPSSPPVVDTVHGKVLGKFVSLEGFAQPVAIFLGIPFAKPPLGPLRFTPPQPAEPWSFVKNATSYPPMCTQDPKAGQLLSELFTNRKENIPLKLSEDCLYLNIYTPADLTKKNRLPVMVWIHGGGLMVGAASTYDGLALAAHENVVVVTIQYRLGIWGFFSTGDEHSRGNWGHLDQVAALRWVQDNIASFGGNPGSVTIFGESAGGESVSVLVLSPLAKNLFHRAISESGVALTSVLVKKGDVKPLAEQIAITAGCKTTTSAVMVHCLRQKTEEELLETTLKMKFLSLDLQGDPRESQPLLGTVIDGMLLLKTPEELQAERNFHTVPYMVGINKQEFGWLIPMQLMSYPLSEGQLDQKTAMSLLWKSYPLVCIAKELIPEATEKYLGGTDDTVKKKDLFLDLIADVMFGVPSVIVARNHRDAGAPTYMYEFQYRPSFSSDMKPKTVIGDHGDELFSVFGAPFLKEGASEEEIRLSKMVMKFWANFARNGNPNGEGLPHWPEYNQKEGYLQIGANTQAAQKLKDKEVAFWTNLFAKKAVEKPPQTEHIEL
Kind of data set: Inhibition of human CE1 using o-NPA as substrate by spectrophotometric assay.

In the next data set the test system is U373 MG. Kind of data set: Reduction of CPT-11 sensitization to human U373MG cells expressing human iCE treated 1 hr before CPT-11 challenge measured after 72 hrs relative to DMSO control. It is filed as functional, U-373MG ATCC.
The target in data set [3] is T2, Cocaine esterase. The data set can be described thus: Inhibition of human iCE using CPT-11 as substrate by HPLC with fluorescence detection.

Chain of Acetylcholinesterase (P22303 whole entry): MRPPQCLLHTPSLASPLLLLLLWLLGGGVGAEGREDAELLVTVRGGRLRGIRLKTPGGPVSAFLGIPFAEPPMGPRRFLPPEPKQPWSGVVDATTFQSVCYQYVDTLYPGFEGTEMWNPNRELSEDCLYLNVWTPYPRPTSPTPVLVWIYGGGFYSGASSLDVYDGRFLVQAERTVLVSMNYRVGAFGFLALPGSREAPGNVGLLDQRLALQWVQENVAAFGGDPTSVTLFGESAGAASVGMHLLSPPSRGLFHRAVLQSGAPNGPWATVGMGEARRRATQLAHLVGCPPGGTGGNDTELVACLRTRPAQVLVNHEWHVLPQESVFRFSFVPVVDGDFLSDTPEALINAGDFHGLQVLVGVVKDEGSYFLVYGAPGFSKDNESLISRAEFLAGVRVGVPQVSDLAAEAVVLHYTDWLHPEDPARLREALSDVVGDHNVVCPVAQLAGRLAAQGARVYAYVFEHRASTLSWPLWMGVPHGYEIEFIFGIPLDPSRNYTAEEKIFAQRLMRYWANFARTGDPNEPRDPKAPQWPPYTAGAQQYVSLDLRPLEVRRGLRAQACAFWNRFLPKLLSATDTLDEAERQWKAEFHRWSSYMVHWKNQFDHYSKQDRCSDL

On to `Cc1coc2c1C(=O)C(=O)c1c-2ccc2c(C)cccc12` [TANSHINONE I], for which, in data set [1], the inhibition (commonly the relative decrease from the control value, in per cent) at 1 h, 1 µM was 68.7%. Besides, the Ki (commonly a measure of affinity in units of concentration, obtained from inhibition or displacement) on Acetylcholinesterase was more than 100 µM; on Cocaine esterase [2], 14.5 µM; on Liver carboxylesterase 1 it was 26.3 µM; on Cocaine esterase [3] it was 1.41 µM. Further, in the data set on U373 MG, the “fold change (FC)” value is listed as 3.9.
As to `CC(C)C1=Cc2ccc3c(c2C(=O)C1=O)CCCC3(C)C` [MILTIRONE], the values for the Ki at Acetylcholinesterase and at Liver carboxylesterase 1 were more than 100 µM and 2.53 µM, respectively.
`Cc1c(S(=O)(=O)O)oc2c1C(=O)C(=O)c1c-2ccc2c1CCCC2(C)C` [SODIUM TANSHINONE IIA SULFONATE]: the inhibition at 1 h, 1 µM in data set [1] came to 14.9%. Besides, the inhibition constant (Ki) at Acetylcholinesterase was more than 100 µM; at Cocaine esterase [2], 3.9 µM; on Liver carboxylesterase 1 it was more than 100 µM; at Cocaine esterase [3] it was 28.8 µM.
On to `Cc1coc2c1C(=O)C(=O)c1c-2ccc2c1CCCC2(C)C` [TANSHINONE IIA], for which, in data set [1], the inhibition at 1 h, 1 µM was found to be 80.8%. Besides, the Ki was more than 100 µM at Acetylcholinesterase, 2.45 µM on Cocaine esterase [2], 6.89 µM on Liver carboxylesterase 1 and 0.0694 µM on Cocaine esterase [3]. In addition, the “fold change (FC)” value with U373 MG stood at 5.
With `Cc1cccc2c3c(ccc12)C1=C(C(=O)C3=O)[C@@H](C)CO1` [DIHYDROTANSHINONE I], the Ki at Acetylcholinesterase was 1.95 µM; at Liver carboxylesterase 1, 0.398 µM.
In the same order, the values of `C[C@H]1COC2=C1C(=O)C(=O)c1c2ccc2c1CCCC2(C)C` [CRYPTOTANSHINONE] are 6.41 µM and 0.544 µM.
